{"source": "patent US20230404081A1", "about": "“A FORMULATION AND A METHOD FOR INDUCING DEFENSE RESPONSE IN PLANTS” (NATIONAL INSTITUTE OF PLANT GENOME RESEARCH, priority 2020, published 2023)", "key": {"nitric oxide (NO)": {"test_system": "nitric oxide (NO)", "format": "in vivo, tomato"}, "tomato leaves": {"test_system": "tomato leaves", "experiment": "Hypersensitive response like symptoms on tomato leaves under sodium dithionite coated Whatman filter paper stickers", "format": "in vivo", "conditions": "tomato leaves (Pusa Rubi), stickers on adaxial surface for 3 hours, followed till 24 h", "protocol": "To check whether sodium dithionite is able to induce plants innate immune response, square stickers from Whatman filter papers were coated with sodium dithionite under anoxic conditions (FIG. 4). These stickers were stacked on the adaxial surface of tomato leaves for 3 hours (FIG. 5). The variety of the tomato plant used for the purposes of present disclosure is Pusa Rubi accessed from Indian Agricultural Research Institute, New Delhi, India."}, "salicylic acid (SA)": {"test_system": "salicylic acid (SA)", "experiment": "Salicylic acid (SA) estimation in distal leaves", "conditions": "distal leaf samples, 6h post-sodium dithionite treatment, vs control plants", "procedure": "Since salicylic acid (SA) is important in the induction of systemic acquired resistance in plants, the distal leaf samples were collected for SA estimation at 6h post-sodium dithionite treatment."}}}
{"smiles": "O=S([O-])S(=O)[O-].[Na+].[Na+]", "note": "[sodium dithionite]", "values": [{"measurement": "NO levels (DAF-FM DA) after further treatment with avirulent Pseudomonas syringae", "setting": "nitric oxide (NO); in vivo", "value": "Larger spots representing bursts of NO were observed"}, {"measurement": "NO production (DAF-FM DA)", "setting": "nitric oxide (NO); tomato leaves treated with sodium dithionite strips alone", "value": "Increased microbursts of NO"}, {"measurement": "hypersensitive response like symptoms", "setting": "tomato leaves", "value": "Hypersensitive response like symptoms started developing just after the treatment and was increased till 24 h"}, {"measurement": "SA accumulation in distal leaves", "setting": "salicylic acid (SA)", "value": "significant accumulation of SA"}]}
